Measured values as given in ChEMBL document CHEMBL1201862, “PubChem BioAssay data set” (2004).
Calls of active or inactive are those of the source.

Experiments:
[1] = molecular target: T1, High affinity choline transporter 1 (Homo sapiens, UniProt Q9GZV3); assay: human choline transporter blockers, potency – cell-based, 5-point CRC, membrane potential dye, dose response (AID 504840); type: functional
T1 sequence (Q9GZV3 whole entry): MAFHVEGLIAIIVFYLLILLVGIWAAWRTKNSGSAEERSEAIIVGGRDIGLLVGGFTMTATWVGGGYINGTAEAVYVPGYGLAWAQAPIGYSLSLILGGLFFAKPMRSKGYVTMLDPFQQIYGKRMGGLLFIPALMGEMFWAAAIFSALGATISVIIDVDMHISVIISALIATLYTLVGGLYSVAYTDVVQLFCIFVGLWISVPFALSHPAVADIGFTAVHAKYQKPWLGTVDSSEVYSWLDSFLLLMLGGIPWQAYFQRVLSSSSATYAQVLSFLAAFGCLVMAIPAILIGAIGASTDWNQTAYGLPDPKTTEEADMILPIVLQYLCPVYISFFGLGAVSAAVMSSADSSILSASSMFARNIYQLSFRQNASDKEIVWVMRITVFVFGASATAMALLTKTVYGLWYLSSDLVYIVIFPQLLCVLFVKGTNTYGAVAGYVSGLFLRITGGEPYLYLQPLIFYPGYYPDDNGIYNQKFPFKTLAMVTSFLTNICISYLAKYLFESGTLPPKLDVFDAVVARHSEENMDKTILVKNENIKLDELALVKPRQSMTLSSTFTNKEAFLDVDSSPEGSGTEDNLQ

Aminopeptidase N = molecular target: T2, Aminopeptidase N (Plasmodium falciparum FcB1/Columbia, UniProt O96935); assay: malaria alanyl aminopeptidase activity blockers – biochemical, fluorogenic H-Leu-NHMec substrate, 1536-well (AID 1445); set-up: species or system Plasmodium falciparum 3D7, 3D7
T2 sequence (O96935 whole entry): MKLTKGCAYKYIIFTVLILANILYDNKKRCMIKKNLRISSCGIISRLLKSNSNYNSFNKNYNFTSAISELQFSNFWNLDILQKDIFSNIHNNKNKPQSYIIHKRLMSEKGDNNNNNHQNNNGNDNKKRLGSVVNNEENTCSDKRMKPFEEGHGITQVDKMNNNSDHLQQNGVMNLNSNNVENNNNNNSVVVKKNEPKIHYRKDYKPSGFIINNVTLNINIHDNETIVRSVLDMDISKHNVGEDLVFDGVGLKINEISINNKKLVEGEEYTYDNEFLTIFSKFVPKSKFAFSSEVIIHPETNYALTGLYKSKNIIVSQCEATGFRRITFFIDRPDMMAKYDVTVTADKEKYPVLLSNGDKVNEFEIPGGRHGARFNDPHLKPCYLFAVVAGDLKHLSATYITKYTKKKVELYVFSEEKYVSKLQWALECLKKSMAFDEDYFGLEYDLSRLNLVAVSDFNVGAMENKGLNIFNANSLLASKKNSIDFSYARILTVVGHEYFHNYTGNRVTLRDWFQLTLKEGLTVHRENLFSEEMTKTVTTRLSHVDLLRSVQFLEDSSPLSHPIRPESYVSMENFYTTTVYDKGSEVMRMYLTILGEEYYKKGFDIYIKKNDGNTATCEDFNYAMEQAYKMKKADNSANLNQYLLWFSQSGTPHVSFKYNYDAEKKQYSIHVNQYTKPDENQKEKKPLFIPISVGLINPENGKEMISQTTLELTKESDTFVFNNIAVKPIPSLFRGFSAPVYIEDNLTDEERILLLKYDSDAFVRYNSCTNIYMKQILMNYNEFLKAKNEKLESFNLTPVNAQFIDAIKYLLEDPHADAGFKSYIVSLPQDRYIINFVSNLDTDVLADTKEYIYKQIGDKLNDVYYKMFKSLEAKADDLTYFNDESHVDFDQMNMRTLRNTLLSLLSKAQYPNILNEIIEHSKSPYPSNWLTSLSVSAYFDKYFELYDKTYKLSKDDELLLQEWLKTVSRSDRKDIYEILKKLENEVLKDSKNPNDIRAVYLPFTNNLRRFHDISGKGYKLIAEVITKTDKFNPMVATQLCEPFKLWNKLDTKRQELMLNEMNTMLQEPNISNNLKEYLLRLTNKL

[2] = reduction of Shn3 3'UTR-driven luciferase in osteoblasts – cell-based, Clone20 osteoblasts, firefly luciferase, cherry-picked, dose response (AID 624132); type: functional;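 further: firefly luciferase luminescence from reporter carrying the Shn3 3'UTR in osteoblasts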
[3] = non-specific 3'UTR reporter inhibition in Clone20-Shn3RL – cell-based, Renilla luciferase, cherry-picked, counter-screen for Shn3 inhibitor project, dose response (AID 624133); type: functional
[4] = loss of viability in HepG2 cells – cell-based, CellTiter-Glo, cherry-picked, cytotoxicity control for Shn3 inhibitor project, dose response (AID 624134); type: functional
[5] = viability of uninfected HEp-2 cells – cell-based, HTS, cytotoxicity control for RSV inhibitor project, dose response (AID 2410); type: functional; conditions: human respiratory syncytial virus
[6] = NIH-3T3 fibroblast cytotoxicity, dose response, cytotoxicity control, cell-based, fluorescence, Alamar Blue, secondary assay (AID 2327); type: functional;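 further: NIH-3T3 mouse fibroblasts cultured with fluconazole at 8 µg/mL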
[7] = fluconazole-exposed Candida albicans growth modulators – fluorescence, retest, confirmation (AID 2467); type: functional, cell-based
SN12K1 = assay: cells; type: functional; conditions: Homo sapiens
P388 = assay: cells; type: functional; conditions: Mus musculus
P388/ADR = assay: cells; type: functional; conditions: Mus musculus
[8] = molecular target: Voltage-dependent T-type calcium channel subunit alpha-1H (Homo sapiens, UniProt O95180); type: functional;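 further: channel activity triggered by adding a high calcium stimulation buffer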
Voltage-dependent T-type calcium channel subunit alpha-1H, sequence (O95180 whole entry): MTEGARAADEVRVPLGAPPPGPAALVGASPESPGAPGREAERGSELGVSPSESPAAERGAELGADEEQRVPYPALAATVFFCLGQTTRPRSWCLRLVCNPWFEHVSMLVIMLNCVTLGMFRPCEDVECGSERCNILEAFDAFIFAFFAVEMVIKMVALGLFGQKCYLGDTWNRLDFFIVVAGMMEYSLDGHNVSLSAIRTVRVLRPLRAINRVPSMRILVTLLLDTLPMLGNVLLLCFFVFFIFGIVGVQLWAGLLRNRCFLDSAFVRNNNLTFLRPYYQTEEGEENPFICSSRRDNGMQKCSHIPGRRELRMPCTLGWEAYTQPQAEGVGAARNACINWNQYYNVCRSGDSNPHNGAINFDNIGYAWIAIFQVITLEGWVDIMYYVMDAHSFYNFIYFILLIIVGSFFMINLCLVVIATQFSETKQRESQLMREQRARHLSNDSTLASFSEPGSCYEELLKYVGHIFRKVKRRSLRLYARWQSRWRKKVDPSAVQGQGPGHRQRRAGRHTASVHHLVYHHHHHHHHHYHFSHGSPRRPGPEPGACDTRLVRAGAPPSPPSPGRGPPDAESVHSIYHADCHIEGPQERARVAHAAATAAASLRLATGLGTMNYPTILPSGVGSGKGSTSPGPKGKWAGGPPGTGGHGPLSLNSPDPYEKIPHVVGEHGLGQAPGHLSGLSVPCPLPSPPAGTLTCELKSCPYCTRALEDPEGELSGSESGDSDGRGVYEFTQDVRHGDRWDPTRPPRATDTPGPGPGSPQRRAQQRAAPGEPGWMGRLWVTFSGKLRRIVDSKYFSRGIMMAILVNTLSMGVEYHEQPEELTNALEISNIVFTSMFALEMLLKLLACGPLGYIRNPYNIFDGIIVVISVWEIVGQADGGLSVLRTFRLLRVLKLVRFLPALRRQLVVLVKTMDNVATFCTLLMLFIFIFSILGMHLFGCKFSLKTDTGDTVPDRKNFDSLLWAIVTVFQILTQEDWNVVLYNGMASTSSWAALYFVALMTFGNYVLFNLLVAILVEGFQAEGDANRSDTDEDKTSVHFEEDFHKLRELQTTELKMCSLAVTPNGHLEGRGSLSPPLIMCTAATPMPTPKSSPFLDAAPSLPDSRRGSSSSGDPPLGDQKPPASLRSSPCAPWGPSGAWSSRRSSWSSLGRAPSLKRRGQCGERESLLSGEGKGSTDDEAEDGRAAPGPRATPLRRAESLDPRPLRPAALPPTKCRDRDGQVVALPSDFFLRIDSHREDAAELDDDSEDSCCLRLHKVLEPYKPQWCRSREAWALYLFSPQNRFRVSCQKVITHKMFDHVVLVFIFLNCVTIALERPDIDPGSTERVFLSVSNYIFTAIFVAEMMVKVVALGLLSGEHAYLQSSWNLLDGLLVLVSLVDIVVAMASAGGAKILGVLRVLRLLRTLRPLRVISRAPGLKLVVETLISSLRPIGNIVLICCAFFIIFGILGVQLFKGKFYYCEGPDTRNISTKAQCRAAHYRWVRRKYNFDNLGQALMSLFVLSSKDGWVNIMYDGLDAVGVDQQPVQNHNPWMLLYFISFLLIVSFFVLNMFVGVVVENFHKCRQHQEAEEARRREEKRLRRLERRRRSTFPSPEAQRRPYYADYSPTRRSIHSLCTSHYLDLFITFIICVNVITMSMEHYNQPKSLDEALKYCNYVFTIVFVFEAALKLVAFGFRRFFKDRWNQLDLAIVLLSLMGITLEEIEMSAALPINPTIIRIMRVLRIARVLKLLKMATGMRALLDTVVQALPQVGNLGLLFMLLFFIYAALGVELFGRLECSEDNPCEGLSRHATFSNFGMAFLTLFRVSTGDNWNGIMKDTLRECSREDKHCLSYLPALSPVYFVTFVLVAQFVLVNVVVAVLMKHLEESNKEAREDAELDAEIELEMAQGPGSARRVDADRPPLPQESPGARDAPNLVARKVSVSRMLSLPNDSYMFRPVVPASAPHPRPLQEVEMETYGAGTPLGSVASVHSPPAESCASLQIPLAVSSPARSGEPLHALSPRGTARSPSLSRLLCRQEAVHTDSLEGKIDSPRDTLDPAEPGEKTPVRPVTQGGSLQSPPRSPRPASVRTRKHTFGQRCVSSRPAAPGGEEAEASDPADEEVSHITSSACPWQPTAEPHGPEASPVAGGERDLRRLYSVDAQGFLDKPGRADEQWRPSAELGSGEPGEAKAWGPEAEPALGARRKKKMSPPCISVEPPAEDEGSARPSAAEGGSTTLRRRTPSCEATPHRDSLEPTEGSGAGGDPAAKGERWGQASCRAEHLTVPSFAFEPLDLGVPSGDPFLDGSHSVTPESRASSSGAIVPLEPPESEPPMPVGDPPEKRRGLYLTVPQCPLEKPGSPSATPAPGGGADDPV

[9] = molecular target: T3, Corticotropin-releasing factor receptor 2/Corticotropin-releasing factor-binding protein (Homo sapiens, UniProt P24387+Q13324); assay: activators of CRF receptor 2 with binding protein – uHTS hits, confirmation (AID 602473); type: functional; conditions: read-out: EC50_Mean
T3 sequence (Q13324 whole entry): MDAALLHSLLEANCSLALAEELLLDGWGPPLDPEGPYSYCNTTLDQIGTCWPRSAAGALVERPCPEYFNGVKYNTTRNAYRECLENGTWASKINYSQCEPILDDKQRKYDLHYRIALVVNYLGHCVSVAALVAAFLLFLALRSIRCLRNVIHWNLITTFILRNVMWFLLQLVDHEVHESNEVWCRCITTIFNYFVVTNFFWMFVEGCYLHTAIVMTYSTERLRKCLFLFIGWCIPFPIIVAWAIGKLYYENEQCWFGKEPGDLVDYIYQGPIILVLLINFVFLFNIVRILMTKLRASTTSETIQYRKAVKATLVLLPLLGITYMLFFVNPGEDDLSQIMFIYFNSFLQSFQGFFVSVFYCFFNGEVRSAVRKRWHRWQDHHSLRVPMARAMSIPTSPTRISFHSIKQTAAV
T3 sequence (P24387 whole entry): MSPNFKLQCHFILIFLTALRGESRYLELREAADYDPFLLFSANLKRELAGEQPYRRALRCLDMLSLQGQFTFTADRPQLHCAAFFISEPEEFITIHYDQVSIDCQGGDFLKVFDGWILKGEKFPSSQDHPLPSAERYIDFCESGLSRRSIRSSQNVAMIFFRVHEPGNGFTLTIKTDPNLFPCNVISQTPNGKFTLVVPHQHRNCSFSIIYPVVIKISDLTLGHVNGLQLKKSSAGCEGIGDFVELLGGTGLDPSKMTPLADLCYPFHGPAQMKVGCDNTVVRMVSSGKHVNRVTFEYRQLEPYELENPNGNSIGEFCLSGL

[10] = molecular target: T3, Corticotropin-releasing factor receptor 2/Corticotropin-releasing factor-binding protein; assay: Dose Response confirmation of uHTS hits for small molecule antagonists of the CRF-binding protein and CRF-R2 receptor complex.; type: functional; conditions: read-out: IC50_Mean

In the case of `CCc1nn2c(NCCOC)cc(C)nc2c1-c1ccc(F)cc1`, the IC50 [1] is reported as 14.5 µM (active).
In the case of `O=c1oc2c(CN3CCOCC3)c(O)ccc2c2c1CCCC2`, the IC50 (Aminopeptidase N) is reported as 23.7 µM (active).
For `O=C(CSc1nnc(-c2ccncc2)n1Cc1ccco1)c1ccc(Cl)cc1`, the IC50 [1] was 1.91 µM (active).
For `CN(CCOc1ccc(Cl)cc1)C(=O)c1cccc(S(=O)(=O)N2CCN(Cc3ccccc3)CC2)c1`, the AC50 [2] was 2.29 µM (active), the AC50 [3] was 3.57 µM (active) and the AC50 [4] was > 70 µM (inactive).
In the case of `C=C1CC2(OC1=O)c1ccccc1CCc1ccccc12`, the AC50 [2] is reported as 1.28 µM (active), the AC50 [3] is reported as 5.67 µM (active) and the AC50 [4] is reported as 11.4 µM (active).
In the case of `COc1ccc(OCC(O)CNCCOc2ccccc2OC)c(C(C)(C)C)c1` (centres undefined), the AC50 [2] is reported as 11.6 µM (active), the AC50 [3] is reported as 19.6 µM (active) and the AC50 [4] is reported as 30.7 µM (active). The CC50 [5] was 14.7 µM (active).
For `CCN(CC)C(=O)Cn1c(=O)n(-c2ccccc2)c(=O)c2c3c(sc21)CCC3`, the EC50 [6] was > 160 µM (inactive), the EC50 [7] was > 38 µM (not active) and the IC50 (Aminopeptidase N) was 51.2 µM (active).
In the case of `CCc1nnc(NS(=O)(=O)c2ccc(NC(=S)NC(=O)c3cccs3)cc2)s1`, the IC50 (Aminopeptidase N) is reported as 35.4 µM (active).
For `CN(C)c1oc(-c2cccs2)nc1C#N`, the IC50 (Aminopeptidase N) was 104 µM (active).
With `Cc1c2cnccc2c(C)c2c1c1ccccc1n2CC1CO1` (centres undefined) the GI50 (SN12K1) was 0.719 µM (active), the GI50 (P388) was 0.0291 µM (active) and the GI50 (P388/ADR) was 0.065 µM (active).
For `COC(=O)c1ccccc1NC(=O)c1cccc(NC(=O)c2ccc(Br)o2)c1C`, the EC50 [8] was 5.7 µM (active).
With `c1ccc2c3c(ccc2c1)-c1[nH]ncc1CCO3` the GI50 (SN12K1) was 22.4 µM (inactive), the GI50 (P388) was 26.1 µM (inactive) and the GI50 (P388/ADR) was 26.9 µM (inactive).
With `O=C1CC(c2nc3ccccc3[nH]2)CN1c1cccc(C(F)(F)F)c1` (centres undefined) the EC50 [8] was 8.89 µM (active).
With `CCCNS(=O)(=O)c1cccc(C(=O)NC2CCCc3ccccc32)c1` (centres undefined) the EC50 [9] was > 53 µM (inactive), the IC50 [1] was 13.5 µM (active) and the IC50 [10] was > 47.1 µM (inactive).
